Test results reported in patent publication US12568972B2, “Pyridazinol compounds and derivatives, preparation methods, herbicidal compositions and applications thereof” (Qingdao Kingagroot Chemical Compound Co., Ltd., priority 2018, dated 2026).

Legend:
Test in all cases: Post-emergence test, weed control effect
Format in all cases: in vivo
Settings in all cases: after 3 weeks
[1] = test system: Amaranthus retroflexus
Source text: (§1) The activity level standard of harmful plant destruction (i.e. growth inhibition rate) is as follows: • Level 10: completely dead; • Level 9: above 90% growth inhibition rate; • Level 8: above 80% growth inhibition rate; • Level 7: above 70% growth inhibition rate; • Level 6: above 60% growth inhibition rate; • Level 5: above 50% growth inhibition rate; • Level 4: above 40% growth inhibition rate; • Level 3: above 30% growth inhibition rate; • Level 2: above 20% growth inhibition rate; • Level 1: below 20% growth inhibition rate; • Level 0: no effect.
(§2) The above described growth inhibition rates are fresh weight inhibition rates.
(§3) Experiment of post-emergence test: monocotyledonous and dicotyledonous weed seeds as well as main crop seeds (i.e., wheat, corn, rice, soybean, cotton, oilseed rape, millet and sorghum) were put into a plastic pot loaded with soil, then covered with 0.5-2 cm of soil, and the seeds were allowed to grow in good greenhouse environment. The test plants were treated at 2-3 leaf stage 2-3 weeks after sowing. The test compounds of the invention were dissolved in acetone respectively, then added with Tween-80 and diluted by a certain amount of water to give solutions with certain concentrations, and added with 80% vegetable oil methyl ester synergist at 1500 g/ha. The solution was sprayed to the plants with a sprayer. The plants were cultured for 3 weeks in the greenhouse.

[2] = test system: Rorippa indica
Source text: as §1, §2, §3

[3] = test system: Veronica polita
Source text: as §1, §2, §3

[4] = test system: Chenopodiaceae
Source text: as §1, §2, §3

Oc1cc(C(F)(F)F)nnc1-c1ccc(Br)cc1 [Compound 28]
10: weed control effect (activity level), Amaranthus retroflexus ([1]; dose 1000 g/ha) | weed control effect (activity level), Rorippa indica ([2]; dose 1000 g/ha) | weed control effect (activity level), Veronica polita ([3]; dose 1000 g/ha) | weed control effect (activity level), Chenopodiaceae ([4]; dose 1000 g/ha)

COc1ccc(-c2nnc(C(F)(F)F)cc2O)cc1[N+](=O)[O-] [Compound 768]
10: weed control effect (activity level), Amaranthus retroflexus ([1]; Dose 3000 g/ha) | weed control effect (activity level), Rorippa indica ([2]; Dose 3000 g/ha) | weed control effect (activity level), Veronica polita ([3]; Dose 3000 g/ha) | weed control effect (activity level), Chenopodiaceae ([4]; Dose 3000 g/ha)

Oc1cc(C(F)(F)F)nnc1-c1ccc(Cl)cc1Cl [Compound 39]
10: weed control effect (activity level), Amaranthus retroflexus ([1]; dose 1000 g/ha) | weed control effect (activity level), Rorippa indica ([2]; dose 1000 g/ha) | weed control effect (activity level), Veronica polita ([3]; dose 1000 g/ha) | weed control effect (activity level), Chenopodiaceae ([4]; dose 1000 g/ha)

Oc1cc(C(F)(F)F)nnc1-c1cncc(C(F)(F)F)c1 [Compound 977]
10: weed control effect (activity level), Amaranthus retroflexus ([1]; Dose 3000 g/ha) | weed control effect (activity level), Rorippa indica ([2]; Dose 3000 g/ha) | weed control effect (activity level), Veronica polita ([3]; Dose 3000 g/ha) | weed control effect (activity level), Chenopodiaceae ([4]; Dose 3000 g/ha)

Cc1cc(F)ncc1-c1nnc(C(F)(F)F)cc1O [Compound 221]
10: weed control effect (activity level), Amaranthus retroflexus ([1]; dose 2000 g/ha) | weed control effect (activity level), Rorippa indica ([2]; dose 2000 g/ha) | weed control effect (activity level), Veronica polita ([3]; dose 2000 g/ha) | weed control effect (activity level), Chenopodiaceae ([4]; dose 2000 g/ha)

O=C(Oc1cc(C(F)(F)F)nnc1-c1ccc(F)cc1)C(F)(F)C(F)(F)C(F)(F)F [Compound 1-25]
10: weed control effect, Amaranthus retroflexus (activity level) ([1]; Dose 3000 g/ha) | weed control effect, Rorippa indica (activity level) ([2]; Dose 3000 g/ha) | weed control effect, Veronica polita (activity level) ([3]; Dose 3000 g/ha) | weed control effect, Chenopodiaceae (activity level) ([4]; Dose 3000 g/ha)

CC(C)Sc1ccc(-c2nnc(C(F)(F)F)cc2O)cc1 [Compound 96]
10: weed control effect (activity level), Amaranthus retroflexus ([1]; dose 1000 g/ha) | weed control effect (activity level), Rorippa indica ([2]; dose 1000 g/ha) | weed control effect (activity level), Veronica polita ([3]; dose 1000 g/ha) | weed control effect (activity level), Chenopodiaceae ([4]; dose 1000 g/ha)

Oc1cc(C(F)(F)F)nnc1-c1cnc(F)c(F)c1 [Compound 988]
10: weed control effect (activity level), Amaranthus retroflexus ([1]; Dose 3000 g/ha) | weed control effect (activity level), Rorippa indica ([2]; Dose 3000 g/ha) | weed control effect (activity level), Veronica polita ([3]; Dose 3000 g/ha) | weed control effect (activity level), Chenopodiaceae ([4]; Dose 3000 g/ha)

Oc1cc(C(F)(F)F)nnc1-c1c(F)c(F)c(F)c(F)c1F [Compound 55]
10: weed control effect (activity level), Amaranthus retroflexus ([1]; dose 1000 g/ha) | weed control effect (activity level), Rorippa indica ([2]; dose 1000 g/ha) | weed control effect (activity level), Veronica polita ([3]; dose 1000 g/ha) | weed control effect (activity level), Chenopodiaceae ([4]; dose 1000 g/ha)

O=S(=O)(Oc1cc(C(F)(F)F)nnc1-c1ccc(C(F)(F)F)cc1)c1ccc2oncc2c1 [Compound 1-148]
10: weed control effect, Amaranthus retroflexus (activity level) ([1]; Dose 3000 g/ha) | weed control effect, Rorippa indica (activity level) ([2]; Dose 3000 g/ha) | weed control effect, Veronica polita (activity level) ([3]; Dose 3000 g/ha) | weed control effect, Chenopodiaceae (activity level) ([4]; Dose 3000 g/ha)

CCCn1cc(-c2nnc(C(F)(F)F)cc2O)cn1 [Compound 546]
10: weed control effect (activity level), Amaranthus retroflexus ([1]; Dose 3000 g/ha) | weed control effect (activity level), Rorippa indica ([2]; Dose 3000 g/ha) | weed control effect (activity level), Veronica polita ([3]; Dose 3000 g/ha) | weed control effect (activity level), Chenopodiaceae ([4]; Dose 3000 g/ha)

O=C(Oc1cc(C(F)(F)F)nnc1-c1ccc(F)cc1)c1ccno1 [Compound 1-109]
10: weed control effect, Amaranthus retroflexus (activity level) ([1]; Dose 3000 g/ha) | weed control effect, Rorippa indica (activity level) ([2]; Dose 3000 g/ha) | weed control effect, Veronica polita (activity level) ([3]; Dose 3000 g/ha) | weed control effect, Chenopodiaceae (activity level) ([4]; Dose 3000 g/ha)

Oc1cc(C(F)(F)F)nnc1-c1ccc2cc(Cl)ccc2c1 [Compound 371]
10: weed control effect (activity level), Amaranthus retroflexus ([1]; dose 2000 g/ha) | weed control effect (activity level), Rorippa indica ([2]; dose 2000 g/ha) | weed control effect (activity level), Veronica polita ([3]; dose 2000 g/ha) | weed control effect (activity level), Chenopodiaceae ([4]; dose 2000 g/ha)

Cn1nc(Br)cc1-c1nnc(C(F)(F)F)cc1O [Compound 777]
10: weed control effect (activity level), Amaranthus retroflexus ([1]; Dose 3000 g/ha) | weed control effect (activity level), Rorippa indica ([2]; Dose 3000 g/ha) | weed control effect (activity level), Veronica polita ([3]; Dose 3000 g/ha) | weed control effect (activity level), Chenopodiaceae ([4]; Dose 3000 g/ha)

Oc1cc(C(F)(F)F)nnc1-c1cccc(F)c1F [Compound 766]
10: weed control effect (activity level), Amaranthus retroflexus ([1]; Dose 3000 g/ha) | weed control effect (activity level), Rorippa indica ([2]; Dose 3000 g/ha) | weed control effect (activity level), Veronica polita ([3]; Dose 3000 g/ha) | weed control effect (activity level), Chenopodiaceae ([4]; Dose 3000 g/ha)

Oc1cc(C(F)(F)F)nnc1-c1cnccc1C(F)(F)F [Compound 978]
10: weed control effect (activity level), Amaranthus retroflexus ([1]; Dose 3000 g/ha) | weed control effect (activity level), Rorippa indica ([2]; Dose 3000 g/ha) | weed control effect (activity level), Veronica polita ([3]; Dose 3000 g/ha) | weed control effect (activity level), Chenopodiaceae ([4]; Dose 3000 g/ha)

Cc1ccncc1-c1nnc(C(F)(F)F)cc1O [Compound 975]
10: weed control effect (activity level), Amaranthus retroflexus ([1]; Dose 3000 g/ha) | weed control effect (activity level), Rorippa indica ([2]; Dose 3000 g/ha) | weed control effect (activity level), Veronica polita ([3]; Dose 3000 g/ha) | weed control effect (activity level), Chenopodiaceae ([4]; Dose 3000 g/ha)
